{
  "source": "patent US20140343249A1",
  "about": "“CELL KILLING FUSION PEPTIDE EXHIBITING TUMOR CELL-SPECIFIC NECROSIS INDUCTION AND TUMOR REGRESSION” (INDUSTRY-ACADEMIC COOPERATION FOUNDATION, CHOSUN UNIVERSITY, priority 2011, published 2014)",
  "key": {"[1]": {"experiment": "Movement activity of mouse after I.V. injection", "format": "in vivo", "conditions": "10-30 min after I.V. injection of 75 ul (1 mM) into BalB/C mouse (about 20 g)"}, "[2]": {"system": "CT-26 tumor", "experiment": "In vivo screening of tumor regression activity, CT-26 tumor in BALB/C mice", "parameters": "key to In vivo Screening: NR: no regression (no decrease on the tumor volume); ND: not determined", "conditions": "for In vivo Screening: CT-26 tumor-bearing BALB/C mice, intravenous injection; for toxicity to the experimental animals: 100 ul (1 mM) intravenously 2-3 times (1 injection/day)", "protocol": "In order to test tumor regression activity of the cell-killing CKP fusion peptides manufactured in Example 1, colon cell line, CT-26 (1.5×10^5 cells) was subcutaneously injected into dorsal skin of BALB/C mice of 6 weeks old to form tumor. After about 10 days, when the formed tumor volume reach to about 70±10 mm^3, the cancer cell specific CKP fusion peptide 100 ul (1 mM) was intravenously injected continuously 2-3 times (1 injection/day) into 3 mice, respectively, and after 10-13 days, change on the tumor tissue volume (length×wide^2×0.5) was observed."}, "[3]": {"system": "HeLa cells, cervical cancer cell line", "experiment": "Cell-killing activity of CKP peptide variants in HeLa, crystal violet staining", "format": "cell-based, human", "conditions": "0-40 μM, 24 hours, peptides linked to PTD RRRRRRRRG", "excerpt": "In order to examine whether variants, in which some amino acids of the CKP peptide (SEQ ID NO: 21; KLLNLISKLF) of the present invention are substituted, also have cell-killing activity or not, CKP2 (1 amino acid was substituted) (SEQ ID NO: 22; KALNLISKLF), CKP3 (2 amino acids were substituted) (SEQ ID NO: 23; KLAALISKLF), CKP4 (2 amino acids were substituted) (SEQ ID NO: 24; KLLNLIAALF) and CKP5 (3 amino acids were substituted) (SEQ ID NO: 25; KALNLIAALF), which are CKP peptide variants in which 1-3 of amino acid residues linked to the known protein transduction domain (PTD) having RRRRRRRRG (RQ) sequence are substituted, were synthesized by the procedure described in Example 1. Further, in order to investigate influence of substitution at the leucine's repeat in the CKP, the CKP peptide variants, CKP6 (2nd and 3rd L were substituted to A) (SEQ ID NO: 26; KAANLISKLF), CKP7 (5th L was substituted to A) (SEQ ID NO: 27; KLLNAISKLF) and CKP8 (9th L was substituted to A) (SEQ ID NO: 28; KLLNLISKAF) linked to the RRRRRRRRG (RQ) sequence of the protein transduction domain (PTD) were synthesized by the procedure described in Example 1. In order to test cell-killing activity of the variants, a cervical cancer cell line, HeLa cells were cultured, and the culture medium was replaced with culture medium containing 0, 1, 5, 10, 15, 20, 30 and 40 μM CKP peptide, respectively, followed by further culturing for 24 hours. Living cells attached to the bottom were stained with 100 μl 0.5% crystal violet solution for 10 min, and washed off with distilled water or tap water to remove dead cells floating on the culture medium and also to destain the crystal violet solution. Then, the cells were observed by photography after placing the culture vessel under a fluorescent lamp box as depicted in FIG. 14. The living cells attached to the bottom and stained with the crystal violet were appeared blue color. […] Accordingly, it was identified that the Leucine sequence is a region playing a critical role in cell-killing activity of the CKP."}, "[4]": {"system": "cells", "conditions": "in 10 minutes; cited from earlier work"}, "[5]": {"system": "liver tissue", "experiment": "Toxicity in normal tissue (liver), histology", "format": "in vivo, mouse", "conditions": "intravenous injection, liver sections by the time", "protocol": "In order to evaluate the degree of toxicity to the liver tissue, liver tissue section was prepared as described in Example 8, and pathologically observed in a normal mice group not treated with the peptide, a tumor-formed group intravenously injected with 0.85% normal saline and groups intravenously injected with the cell-killing CKP fusion peptide by the time."}, "[6]": {"experiment": "Hepatocyte toxicity: ALT and AST released to blood", "format": "in vivo, mouse", "conditions": "blood of treated groups by the time versus untreated control group", "protocol": "In order to confirm toxicity of the cell-killing CKP fusion peptide (CTD7:CKP), the amounts of alanine amino transferase (ALT) and aspartate amino transferase (AST) released to blood from hepatocytes of the damaged liver were measured and whether the hepatocytes was damaged or not was confirmed, so as to judge toxicity by the cell-killing CKP fusion peptide."}, "[7]": {"system": "splenocytes", "experiment": "Normal cell necrosis activity in splenocytes by XTT method", "format": "cell-based, mouse", "conditions": "splenocytes from BALB/c mice, 5, 10 and 20 μM, after 15 min", "excerpt": "In order to test cell necrosis inducing activity of the cell-killing CKP fusion peptide (CTD7:CKP) selected in Example 3 in normal cells, primary peritoneal macrophages and splenocytes were isolated from BALB/c mice.\nIn order to obtain splenocytes, complete RPMI media was put into a cell culture dish, male mouse spleen was isolated, and tissue thereof was crushed and centrifuged. Pellet was washed once with media and centrifuged again, and ACK lysis buffer (0.15 M NH4Cl, […], 0.01 M Na2EDTA, pH 7.2-7.4) was added thereto and centrifuged again. Then the pellet was cultured in 5% FBS-containing complete RPMI media for primary culture of the splenocytes, and the media was replaced with culture medium containing 5, 10 and 20 μM of the cell-killing CKP fusion peptide (CTD7:CKP), and after 15 min, cell necrosis inducing activity was confirmed by XTT method."}},
  "note": "Where no end group is shown, it is not given here.",
  "data": [
    {"sequence": "CGKRKGGKLLNLISKLF [CTD2:CKP, CGKRKGGKLLNLISKLF]", "values": [
      {"measurement": "Movement Activities", "setting": "[1]", "result": "Normal"}
    ]},
    {"sequence": "CGRDKGPDCKLLNLISKLF (Cell killing fusion peptide) [CTD12:CKP]", "values": [
      {"measurement": "Movement Activities", "setting": "[1]", "result": "Normal"}
    ]},
    {"sequence": "CNGRCGGKLLNLISKLF (Cell killing fusion peptide) [CTD1:CKP]", "values": [
      {"measurement": "In vivo Screening", "setting": "[2]", "result": "NR"},
      {"measurement": "Movement Activities", "setting": "[1]", "result": "Slow"}
    ]},
    {"sequence": "CRGDKGGKLLNLISKLF [CTD18:CKP, CRGDKGGKLLNLISKLF]", "values": [
      {"measurement": "Movement Activities", "setting": "[1]", "result": "Slow"}
    ]},
    {"sequence": "CRGDKGPDCKLLNLISKLF (Cell killing fusion peptide) [CTD15:CKP]", "values": [
      {"measurement": "Movement Activities", "setting": "[1]", "result": "Normal"}
    ]},
    {"sequence": "KAANLISKLF [CKP6]", "values": [
      {"measurement": "cell-killing activity compared with the CKP peptide", "setting": "[3]", "result": "much decreased cell-killing activity"}
    ]},
    {"sequence": "KALNLIAALF [CKP5]", "values": [
      {"measurement": "cell-killing activity compared with the CKP peptide", "setting": "[3]", "result": "slightly decreased cell-killing activity"}
    ]},
    {"sequence": "KALNLISKLF [CKP2]", "values": [
      {"measurement": "cell-killing activity compared with the CKP peptide", "setting": "[3]", "result": "slightly decreased cell-killing activity"}
    ]},
    {"sequence": "KLAALISKLF [CKP3]", "values": [
      {"measurement": "cell-killing activity compared with the CKP peptide", "setting": "[3]", "result": "slightly decreased cell-killing activity"}
    ]},
    {"sequence": "KLLNAISKLF [CKP7]", "values": [
      {"measurement": "cell-killing activity compared with the CKP peptide", "setting": "[3]", "result": "much decreased cell-killing activity"}
    ]},
    {"sequence": "KLLNLIAALF [CKP4]", "values": [
      {"measurement": "cell-killing activity compared with the CKP peptide", "setting": "[3]", "result": "better cell-killing activity"}
    ]},
    {"sequence": "KLLNLISKAF [CKP8]", "values": [
      {"measurement": "cell-killing activity compared with the CKP peptide", "setting": "[3]", "result": "much decreased cell-killing activity"}
    ]},
    {"sequence": "KLLNLISKLF (Cell Killing Peptide) [MTD]", "values": [
      {"measurement": "cells killed (cell necrosis effect)", "setting": "[4]", "result": "≥ 80", "unit": "%"}
    ]},
    {"sequence": "KLLNLISKLFCGRDKGPDC (Cell killing fusion peptide) [CTD13:CKP]", "values": [
      {"measurement": "Movement Activities", "setting": "[1]", "result": "Normal"}
    ]},
    {"sequence": "KLLNLISKLFCGRDKRLYDC (Cell killing fusion peptide) [CTD14:CKP]", "values": [
      {"measurement": "toxicity to the experimental animals", "setting": "[2]", "result": "dead"},
      {"measurement": "In vivo Screening", "setting": "[2]", "result": "Dead"},
      {"measurement": "Movement Activities", "setting": "[1]", "result": "Dead"}
    ]},
    {"sequence": "KLLNLISKLFCRGDKGPDC (Cell killing fusion peptide) [CTD16:CKP]", "values": [
      {"measurement": "Movement Activities", "setting": "[1]", "result": "Slow"}
    ]},
    {"sequence": "KLLNLISKLFCRGDKRLYDC (Cell killing fusion peptide) [CTD17:CKP]", "values": [
      {"measurement": "toxicity to the experimental animals", "setting": "[2]", "result": "toxicity removing the injected tail by necrosis"},
      {"measurement": "In vivo Screening", "setting": "[2]", "result": "Toxic"},
      {"measurement": "Movement Activities", "setting": "[1]", "result": "Slow"}
    ]},
    {"sequence": "KLLNLISKLFGGCGKRK [CTD3:CKP, KLLNLISKLFGGCGKRK]", "values": [
      {"measurement": "Movement Activities", "setting": "[1]", "result": "Normal"}
    ]},
    {"sequence": "KLLNLISKLFGGCRGDK [CTD19:CKP, KLLNLISKLFGGCRGDK]", "values": [
      {"measurement": "Movement Activities", "setting": "[1]", "result": "Normal"}
    ]},
    {"sequence": "KLLNLISKLFGGLGDRGDR (Cell killing fusion peptide) [CTD10:CKP]", "values": [
      {"measurement": "In vivo Screening", "setting": "[2]", "result": "NR"}
    ]},
    {"sequence": "KLLNLISKLFGGRLLRLLR [CTD6:CKP, KLLNLISKLFGGRLLRLLR]", "values": [
      {"measurement": "toxicity to the experimental animals", "setting": "[2]", "result": "toxicity removing the injected tail by necrosis"},
      {"measurement": "Movement Activities", "setting": "[1]", "result": "Normal"}
    ]},
    {"sequence": "KLLNLISKLFGGRPARPAR [CTD8:CKP, KLLNLISKLFGGRPARPAR]", "values": [
      {"measurement": "Movement Activities", "setting": "[1]", "result": "Slow"}
    ]},
    {"sequence": "RLLRLLRGGKLLNLISKLF [CTD5:CKP, RLLRLLRGGKLLNLISKLF]", "values": [
      {"measurement": "toxicity to the experimental animals", "setting": "[2]", "result": "toxicity removing the injected tail by necrosis"},
      {"measurement": "Movement Activities", "setting": "[1]", "result": "Slow"}
    ]},
    {"sequence": "RPARPARGGKLLNLISKLF [CTD7:CKP, RPARPARGGKLLNLISKLF]", "values": [
      {"measurement": "damage of liver tissue (histology)", "setting": "[5]", "result": "any significant damage was not observed"},
      {"measurement": "ALT released to blood (liver damage index)", "setting": "[6]", "result": "no difference"},
      {"measurement": "AST released to blood (liver damage index)", "setting": "[6]", "result": "no difference"},
      {"measurement": "toxicity to the experimental animals", "setting": "[2]", "result": "no toxicity"},
      {"measurement": "Movement Activities", "setting": "[1]", "result": "Normal"},
      {"measurement": "cell-killing activity in normal cells", "setting": "[7]", "result": "did not show significant cell-killing activity"}
    ]},
    {"sequence": "WDLAWMFRLPVGKLLNLISKLF [CTD11:CKP]", "values": [
      {"measurement": "Movement Activities", "setting": "[1]", "result": "Normal"}
    ]},
    {"sequence": "WIFPWIQLKLLNLISKLF [CTD4:CKP, WIFPWIQLKLLNLISKLF]", "values": [
      {"measurement": "toxicity to the experimental animals", "setting": "[2]", "result": "toxicity removing the injected tail by necrosis"},
      {"measurement": "Movement Activities", "setting": "[1]", "result": "Slow"}
    ]}
  ]
}
